{"source": "patent US20050214412A1", "about": "“APPARATUS AND METHOD FOR DELIVERING NUTRITIONAL SUPPLEMENTS WITH BEVERAGE SWEETENERS” (priority 2004, published 2005)", "experiment": "Proton NMR stability check in deuterium oxide after heating and after sunlight exposure", "type": "physicochemical", "conditions": "with table sugar, Equal, Sweet'N Low and Splenda", "experimental": "All ^1H NMR spectra were obtained on a Varian Mercury 300 NMR spectrometer operating at ambient temperature. Solutions were prepared in deuterium oxide solvent (isotopically labeled water). Samples were prepared by dissolving a measured amount of solid in sufficient solvent to produce a total volume of approximately 1 mL. Initial samples were prepared just before spectra were obtained in order to minimize possible premature hydrolysis or attack by microbes in the case of sugar solutions. Samples were later re-examined after heating at 70.0 to 92.0° C. (158 to 198° F.) for 98 minutes and then again after being stored outside on the roof exposed to Central Florida sunlight and heat for 47.3 hours."}
{"smiles": "O=C1O[C@H]([C@@H](O)CO)C(O)=C1O", "note": "[Vit. C, ascorbic acid]", "values": [{"measurement": "chemical compatibility with sweeteners", "value": "chemically compatible"}]}
